Structures can show the parent of a compound that is named as a salt.

androgen receptor (hAR), sequence (P10275 whole entry): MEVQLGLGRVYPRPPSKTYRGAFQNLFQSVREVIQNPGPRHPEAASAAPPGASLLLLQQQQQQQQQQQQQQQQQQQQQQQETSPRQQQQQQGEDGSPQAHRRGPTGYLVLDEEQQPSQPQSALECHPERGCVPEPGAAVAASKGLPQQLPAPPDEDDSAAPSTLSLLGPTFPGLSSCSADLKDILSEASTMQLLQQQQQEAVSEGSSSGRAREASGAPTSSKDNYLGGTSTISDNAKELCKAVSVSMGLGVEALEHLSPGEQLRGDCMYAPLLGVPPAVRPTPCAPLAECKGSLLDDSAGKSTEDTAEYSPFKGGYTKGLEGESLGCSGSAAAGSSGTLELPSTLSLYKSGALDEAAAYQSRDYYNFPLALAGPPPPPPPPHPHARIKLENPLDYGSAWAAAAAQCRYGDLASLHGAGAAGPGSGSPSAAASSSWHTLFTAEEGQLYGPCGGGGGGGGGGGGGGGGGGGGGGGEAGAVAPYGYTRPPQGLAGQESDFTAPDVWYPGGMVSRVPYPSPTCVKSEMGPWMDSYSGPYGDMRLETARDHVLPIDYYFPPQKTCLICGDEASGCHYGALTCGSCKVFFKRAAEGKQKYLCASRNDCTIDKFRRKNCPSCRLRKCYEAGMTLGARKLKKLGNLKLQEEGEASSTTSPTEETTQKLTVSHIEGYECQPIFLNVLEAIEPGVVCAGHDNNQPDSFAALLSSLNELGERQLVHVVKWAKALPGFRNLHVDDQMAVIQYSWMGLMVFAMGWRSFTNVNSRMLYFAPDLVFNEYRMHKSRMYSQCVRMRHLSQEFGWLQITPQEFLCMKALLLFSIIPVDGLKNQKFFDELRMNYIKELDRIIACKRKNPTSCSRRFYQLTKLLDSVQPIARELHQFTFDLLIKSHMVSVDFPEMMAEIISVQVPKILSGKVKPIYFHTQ

For the test, the target named is androgen receptor (hAR) (Homo sapiens (Human), UniProt P10275). The test can be described thus: Test of transcriptional activity (hAR / ARE-Luc dual-luciferase assay in CHO cells). The format is cell-based. The note with it: EC50 [nM] (mean ± SE), CHO cells with hAR and ARE-Luc, 24 hours; 10 nM DHT = 100%. The procedure:
In order to examine the transcriptional activity of the agonists of the present invention, the following in-vitro experiment was performed. CHO (Chinese hamster ovary) cell line (ATCC, #CCL-61) was seeded in a 96-well plate at a density of 1.5×10^4 cells/well, and cultured for 24 hours. Then, a plasmid hAR and plasmid ARE-Luc-mixed medium was added thereto. The transfected cell line was treated with 0.1˜10,000 nM of SARM derivatives, and then allowed to react for 24 hours.
As for `N#Cc1ccc(N2C[C@@H](C(=O)Nc3cccnc3)O[C@@H]2C(F)(F)F)cc1C(F)(F)F` [Example 110, (2R,5S)-3-(4-cyano-3-(trifluoromethyl)phenyl)-N-(pyridin-3-yl)-2-(trifluoromethyl)oxazolidine-5-carboxamide], the EC50 (in general, the concentration needed to bring the measured effect to its halfway point) amounted to 80 nM.
The value for `N#Cc1ccc(NC(=O)[C@@H]2CN(c3ccc(C#N)c(C(F)(F)F)c3)[C@@H](C(F)(F)F)O2)cc1` [Example 138, (2R,5S)-3-(4-cyano-3-(trifluoromethyl)phenyl)-N-(4-cyanophenyl)-2-(trifluoromethyl)oxazolidine-5-carboxamide] was 17.3 nM; that for `N#Cc1ccc(NC(=O)[C@@H]2CN(c3ccc(C#N)c(C(F)(F)F)c3)[C@@H](C(F)(F)F)O2)c(F)c1` [Example 139, (2R,5S)-N-(4-cyano-2-fluorophenyl)-3-(4-cyano-3-(trifluoromethyl)phenyl)-2-(trifluoromethyl)oxazolidine-5-carboxamide] was 2.74 nM; that for `N#Cc1ccc(N2C[C@@H](C(=O)Nc3ccc(F)c(F)c3)O[C@@H]2C(F)(F)F)cc1C(F)(F)F` [Example 140, (2R,5S)-3-(4-cyano-3-(trifluoromethyl)phenyl)-N-(3,4-difluorophenyl)-2-(trifluoromethyl)oxazolidine-5-carboxamide] was 14.7 nM.
To `N#Cc1cccc(NC(=O)[C@@H]2CN(c3ccc(C#N)c(C(F)(F)F)c3)[C@@H](C(F)(F)F)O2)c1` [Example 141, (2R,5S)-3-(4-cyano-3-(trifluoromethyl)phenyl)-N-(3-cyanophenyl)-2-(trifluoromethyl)oxazolidine-5-carboxamide] belongs 44.2 nM; to `N#Cc1ccc(N2C[C@@H](C(=O)Nc3ccnc(Cl)c3)O[C@@H]2C(F)(F)F)cc1C(F)(F)F` [Example 142, (2R,5S)-N-(2-chloropyridin-4-yl)-3-(4-cyano-3-(trifluoromethyl)phenyl)-2-(trifluoromethyl)oxazolidine-5-carboxamide], 0.79 nM; to `N#Cc1ccc(NC(=O)[C@@H]2CN(c3ccc(C#N)c(C(F)(F)F)c3)[C@@H](C(F)(F)F)O2)cc1C(F)(F)F` [Example 144, (2R,5S)-N,3-bis(4-cyano-3-(trifluoromethyl)phenyl)-2-(trifluoromethyl)oxazolidine-5-carboxamide], 11.1 nM.
To `CCc1cc(C#N)ccc1NC(=O)[C@@H]1CN(c2ccc(C#N)c(C(F)(F)F)c2)[C@@H](C(F)(F)F)O1` [Example 145, (2R,5S)-N-(4-cyano-2-ethylphenyl)-3-(4-cyano-3-(trifluoromethyl)phenyl)-2-(trifluoromethyl)oxazolidine-5-carboxamide] belongs 305 nM; to `N#Cc1ccc(NC(=O)[C@@H]2CN(c3ccc(C#N)c(C(F)(F)F)c3)[C@@H](C(F)(F)F)O2)cc1F` [Example 147, (2R,5S)-3-(4-cyano-3-(trifluoromethyl)phenyl)-N-(4-cyano-3-fluorophenyl)-2-(trifluoromethyl)oxazolidine-5-carboxamide], 768 nM.
As to `N#Cc1ccc(N2C[C@@H](C(=O)Nc3ccc(O)cc3)O[C@@H]2C(F)(F)F)cc1C(F)(F)F` [Example 148, (2R,5S)-3-(4-cyano-3-(trifluoromethyl)phenyl)-N-(4-hydroxyphenyl)-2-(trifluoromethyl)oxazolidine-5-carboxamide], the EC50 amounted to 13.5 nM.
The value for `N#Cc1ccc(N2C[C@@H](C(=O)Nc3ccc([N+](=O)[O-])cc3Cl)O[C@@H]2C(F)(F)F)cc1C(F)(F)F` [Example 151, (2R,5S)-N-(2-chloro-4-nitrophenyl)-3-(4-cyano-3-(trifluoromethyl)phenyl)-2-(trifluoromethyl)oxazolidine-5-carboxamide] was 43.7 nM; that for `N#Cc1ccc(N2C[C@@H](C(=O)Nc3ccc(N)cc3Cl)O[C@@H]2C(F)(F)F)cc1C(F)(F)F` [Example 152, (2R,5S)-N-(4-amino-2-chlorophenyl)-3-(4-cyano-3-(trifluoromethyl)phenyl)-2-(trifluoromethyl)oxazolidine-5-carboxamide] was 521 nM; that for `COC(=O)Nc1ccc(NC(=O)[C@@H]2CN(c3ccc(C#N)c(C(F)(F)F)c3)[C@@H](C(F)(F)F)O2)c(Cl)c1` [Example 154, methyl(3-chloro-4-((2R,5S)-3-(4-cyano-3-(trifluoromethyl)phenyl)-2-(trifluoromethyl)oxazolidine-5-carboxamido)phenyl)carbamate] was 27.8 nM.
The compound `N#Cc1ccc(N2C[C@@H](C(=O)Nc3ccc([N+](=O)[O-])cc3)O[C@@H]2C(F)(F)F)cc1C(F)(F)F` [Example 155, (2R,5S)-3-(4-cyano-3-(trifluoromethyl)phenyl)-N-(4-nitrophenyl)-2-(trifluoromethyl)oxazolidine-5-carboxamide] returned an EC50 of 823 nM. This EC50 is about 30-fold higher than that of the compound before.
As to `N#Cc1ccc(N2C[C@@H](C(=O)Nc3ccc(N)cc3)O[C@@H]2C(F)(F)F)cc1C(F)(F)F` [Example 156, (2R,5S)-N-(4-aminophenyl)-3-(4-cyano-3-(trifluoromethyl)phenyl)-2-(trifluoromethyl)oxazolidine-5-carboxamide], a half-maximal effect (EC50) was put at 323 nM.
The value for `COC(=O)Nc1ccc(NC(=O)[C@@H]2CN(c3ccc(C#N)c(C(F)(F)F)c3)[C@@H](C(F)(F)F)O2)cc1` [Example 157, methyl(4-((2R,5S)-3-(4-cyano-3-(trifluoromethyl)phenyl)-2-(trifluoromethyl)oxazolidine-5-carboxamido)phenyl)carbamate] was 231 nM; that for `CCC(=O)Nc1ccc(NC(=O)[C@@H]2CN(c3ccc(C#N)c(C(F)(F)F)c3)[C@@H](C(F)(F)F)O2)cc1` [Example 158, (2R,5S)-3-(4-cyano-3-(trifluoromethyl)phenyl)-N-(4-propionamidophenyl)-2-(trifluoromethyl)oxazolidine-5-carboxamide] was 12.5 nM; that for `CC(C)C(=O)Nc1ccc(NC(=O)[C@@H]2CN(c3ccc(C#N)c(C(F)(F)F)c3)[C@@H](C(F)(F)F)O2)cc1` [Example 159, (2R,5S)-3-(4-cyano-3-(trifluoromethyl)phenyl)-N-(4-isobutylamidophenyl)-2-(trifluoromethyl)oxazolidine-5-carboxamide] was 288 nM.
Take `N#Cc1ccc(N2C[C@@H](C(=O)Nc3ccc(NC(=O)CO)cc3)O[C@@H]2C(F)(F)F)cc1C(F)(F)F` [Example 160, (2R,5S)-3-(4-cyano-3-(trifluoromethyl)phenyl)-N-(4-(2-hydroxyacetamido)phenyl)-2-(trifluoromethyl)oxazolidine-5-carboxamide]: the EC50 stood at 105 nM.
To `N#Cc1ccc(N2C[C@@H](C(=O)Nc3ccc(NC(N)=O)cc3)O[C@@H]2C(F)(F)F)cc1C(F)(F)F` [Example 161, (2R,5S)-3-(4-cyano-3-(trifluoromethyl)phenyl)-2-(trifluoromethyl)-N-(4-ureidophenyl)oxazolidine-5-carboxamide] belongs 240 nM.
To `N#CCC(=O)Nc1ccc(NC(=O)[C@@H]2CN(c3ccc(C#N)c(C(F)(F)F)c3)[C@@H](C(F)(F)F)O2)cc1` [Example 162, (2R,5S)-3-(4-cyano-3-(trifluoromethyl)phenyl)-N-(4-(2-cyanoacetamido)phenyl)-2-(trifluoromethyl)oxazolidine-5-carboxamide] belongs 149 nM; to `N#Cc1ccc(N2C[C@@H](C(=O)Nc3ccc(NC(=O)CN)cc3)O[C@@H]2C(F)(F)F)cc1C(F)(F)F` [Example 163, (2R,5S)-N-(4-(2-aminoacetamido)phenyl)-3-(4-cyano-3-(trifluoromethyl)phenyl)-2-(trifluoromethyl)oxazolidine-5-carboxamide hydrochloride], 214 nM.
In turn, `N#Cc1ccc(N2C[C@@H](C(=O)N3CCC(C#N)CC3)O[C@@H]2C(F)(F)F)cc1C(F)(F)F` [Example 167] yielded an EC50 of 44 nM.
In the case of `CC(=O)N1CCC(NC(=O)[C@@H]2CN(c3ccc(C#N)c(C(F)(F)F)c3)[C@@H](C(F)(F)F)O2)CC1` [Example 170, (2R,5S)-N-(1-acetylpiperidin-4-yl)-3-(4-cyano-3-(trifluoromethyl)phenyl)-2-(trifluoromethyl)oxazolidine-5-carboxamide], a half-maximal effect (EC50) was put at 3560 nM.
In the case of `CC(=O)N1CCN(C(=O)[C@@H]2CN(c3ccc(C#N)c(C(F)(F)F)c3)[C@@H](C(F)(F)F)O2)CC1` [Example 172, 4-((2R,5S)-5-(4-acetylpiperazine-1-carbonyl)-2-(trifluoromethyl)oxazolidin-3-yl)-2-(trifluoromethyl)benzonitrile], the EC50 came to 699 nM.
In turn, `N#Cc1ccc(N2C[C@@H](C(=O)N3CCN(C#N)CC3)O[C@@H]2C(F)(F)F)cc1C(F)(F)F` [Example 174, 4-((2R,5S)-3-(4-cyano-3-(trifluoromethyl)phenyl)-2-(trifluoromethyl)oxazolidine-5-carbonyl)piperazine-1-carbonitrile] registered an EC50 of 139 nM.
The value for `N#Cc1ccc(N2C[C@@H](C(=O)N3CCC(N)CC3)O[C@@H]2C(F)(F)F)cc1C(F)(F)F` [Example 175, 4-((2R,5S)-5-(4-aminopiperidine-1-carbonyl)-2-(trifluoromethyl)oxazolidin-3-yl)-2-(trifluoromethyl)benzonitrile hydrochloride] was 85.2 nM; that for `CC(=O)NC1CCN(C(=O)[C@@H]2CN(c3ccc(C#N)c(C(F)(F)F)c3)[C@@H](C(F)(F)F)O2)CC1` [Example 176] was 198 nM.
Regarding `COC(=O)N1CCN(C(=O)[C@@H]2CN(c3ccc(C#N)c(Cl)c3)[C@@H](C(F)(F)F)O2)CC1` [Example 178, methyl 4-((2R,5S)-3-(3-chloro-4-cyanophenyl)-2-(trifluoromethyl)oxazolidine-5-carbonyl)piperazine-1-carboxylate], the EC50 turned out to be 21.2 nM.

(Values after patent US9809583B2 (priority 2014, dated 2017).)
